Results: US20080009418A1, “Selective Inhibitors” (Alchemia LTD., priority 2004, published 2008)

How the values were obtained:
Human δ-opioid (DOP) = molecular target: T1, Human δ-opioid (DOP) (Homo sapiens, UniProt P41143); test: Radioligand binding, human δ-opioid (DOP) membranes, FlashPlate, [3H]-Bremazocine; details: compound at 10 μM; for A1 radioligand binding inhibition: human δ-opioid (DOP) membranes
T1 construct: purchased Perkin Elmer Biosignal
Outline: (§1)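 Cloned human receptor membranes were coated onto FlashPlate wells and incubated with radioligand and compound (added from a 0.5 mM DMSO daughter plate) for 1 hour at room temperature in the dark. Scintillation counting gave percent inhibition, with DMSO defining total and reference ligand defining non-specific binding.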

Human κ-Opioid (KOP) = molecular target: T2, Human κ-Opioid (KOP) (Homo sapiens, UniProt P41145); test: Radioligand binding, human κ-opioid (KOP) membranes, filtration, [3H]-Diprenorphine; details: compound at 10 μM; for A2 radioligand binding inhibition: human κ-opioid (KOP) membranes
T2 construct: purchased Perkin Elmer Biosignal
T2 sequence (P41145 whole entry): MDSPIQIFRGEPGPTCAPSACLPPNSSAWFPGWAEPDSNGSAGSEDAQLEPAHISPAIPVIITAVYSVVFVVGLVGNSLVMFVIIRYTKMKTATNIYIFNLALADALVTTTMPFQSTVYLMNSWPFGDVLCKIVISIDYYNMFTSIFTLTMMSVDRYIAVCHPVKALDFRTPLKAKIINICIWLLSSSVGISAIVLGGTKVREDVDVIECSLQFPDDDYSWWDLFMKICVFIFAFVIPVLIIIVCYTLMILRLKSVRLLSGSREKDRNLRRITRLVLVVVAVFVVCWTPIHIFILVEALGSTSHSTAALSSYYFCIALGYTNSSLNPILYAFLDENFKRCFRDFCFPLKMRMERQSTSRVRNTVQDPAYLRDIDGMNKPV
Outline: (§2)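 Membranes from cloned human receptors were incubated with compound and radioligand for 1 hour at room temperature. Bound ligand was collected on 0.3% PEI-soaked filters, washed with cold 50 mM Tris-HCl pH 7.4, and counted by scintillation. Percent inhibition was computed against DMSO totals and reference-ligand nonspecific wells.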

Human Melanocortin (MC3) = molecular target: T3, Human Melanocortin (MC3) (Homo sapiens, UniProt P41968); test: Radioligand binding, human melanocortin MC3 membranes, FlashPlate, [125I]-NDP-αMSH; details: compound at 10 μM; for A3 radioligand binding inhibition: human melanocortin MC3 membranes
T3 construct: purchased Perkin Elmer Biosignal
T3 sequence (P41968 whole entry): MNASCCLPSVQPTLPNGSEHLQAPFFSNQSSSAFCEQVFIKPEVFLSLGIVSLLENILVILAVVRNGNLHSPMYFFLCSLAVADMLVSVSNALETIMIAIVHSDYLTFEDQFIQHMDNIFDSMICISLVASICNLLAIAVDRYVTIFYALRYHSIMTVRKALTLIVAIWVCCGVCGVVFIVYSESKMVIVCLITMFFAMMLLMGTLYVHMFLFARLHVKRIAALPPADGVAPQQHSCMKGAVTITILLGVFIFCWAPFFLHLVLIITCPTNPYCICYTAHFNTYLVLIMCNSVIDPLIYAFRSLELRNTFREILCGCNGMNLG
Outline: as §1

Human Melanocortin (MC4) = molecular target: T4, Human Melanocortin (MC4) (Homo sapiens, UniProt P32245); test: Radioligand binding, human melanocortin MC4 membranes, FlashPlate, [125I]-NDP-αMSH; details: compound at 10 μM; for A4 radioligand binding inhibition: human melanocortin MC4 membranes
T4 construct: purchased Perkin Elmer Biosignal
T4 sequence (P32245 whole entry): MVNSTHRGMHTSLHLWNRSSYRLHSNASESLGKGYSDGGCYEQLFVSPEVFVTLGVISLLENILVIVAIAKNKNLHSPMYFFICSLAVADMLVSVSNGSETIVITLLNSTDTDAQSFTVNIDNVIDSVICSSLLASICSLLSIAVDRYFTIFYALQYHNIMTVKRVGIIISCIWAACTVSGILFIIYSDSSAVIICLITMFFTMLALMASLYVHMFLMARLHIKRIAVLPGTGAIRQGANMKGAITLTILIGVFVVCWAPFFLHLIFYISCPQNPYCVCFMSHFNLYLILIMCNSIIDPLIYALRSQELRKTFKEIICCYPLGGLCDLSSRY
Outline: as §1

Human melanocortin (MC5) = molecular target: T5, Human melanocortin (MC5) (Homo sapiens, UniProt P33032); test: Radioligand binding, human melanocortin MC5 membranes, FlashPlate, [125I]-NDP-αMSH; details: compound at 10 μM; for A5 radioligand binding inhibition: human melanocortin MC5 membranes
T5 construct: purchased Perkin Elmer Biosignal
T5 sequence (P33032 whole entry): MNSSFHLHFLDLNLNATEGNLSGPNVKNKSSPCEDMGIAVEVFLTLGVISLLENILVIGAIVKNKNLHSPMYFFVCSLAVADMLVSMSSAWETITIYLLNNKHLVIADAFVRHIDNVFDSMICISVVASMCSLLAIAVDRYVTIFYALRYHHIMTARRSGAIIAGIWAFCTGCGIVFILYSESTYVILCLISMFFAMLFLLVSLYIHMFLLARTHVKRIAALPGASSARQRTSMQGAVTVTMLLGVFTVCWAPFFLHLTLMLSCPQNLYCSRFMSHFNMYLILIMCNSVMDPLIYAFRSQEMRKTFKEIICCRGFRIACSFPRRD
Outline: as §1

[1] = molecular target: T6, Human melanin-concentrating hormone (MCH1) (Homo sapiens, UniProt Q99705); test: Radioligand binding, human melanin-concentrating hormone MCH1 membranes, FlashPlate, [125I]-S36057; details: compound at 10 μM; for A6: inhibition of radioligand binding, human melanin-concentrating hormone (MCH1): [125I]-S36057; for A6 radioligand binding inhibition: human MCH1 membranes
T6 construct: purchased Perkin Elmer Biosignal
T6 sequence (Q99705 whole entry): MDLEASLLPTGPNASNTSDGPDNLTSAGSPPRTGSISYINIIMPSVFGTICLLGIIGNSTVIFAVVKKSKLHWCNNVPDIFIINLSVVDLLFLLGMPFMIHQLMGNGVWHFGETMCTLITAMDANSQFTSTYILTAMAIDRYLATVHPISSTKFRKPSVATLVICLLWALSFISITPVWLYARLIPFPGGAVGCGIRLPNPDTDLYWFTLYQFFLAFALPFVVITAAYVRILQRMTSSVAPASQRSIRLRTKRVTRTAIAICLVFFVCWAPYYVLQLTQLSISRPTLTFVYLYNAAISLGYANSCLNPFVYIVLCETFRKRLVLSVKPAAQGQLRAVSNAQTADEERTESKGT
Outline: as §1

Human μ-opioid (MOP) = molecular target: T7, Human μ-opioid (MOP) (Homo sapiens, UniProt P35372); test: Radioligand binding, human μ-opioid (MOP) membranes, FlashPlate, [3H]-Naloxone; details: compound at 10 μM; for A7 radioligand binding inhibition: human μ-opioid (MOP) membranes
T7 construct: purchased Perkin Elmer Biosignal
T7 sequence (P35372 whole entry): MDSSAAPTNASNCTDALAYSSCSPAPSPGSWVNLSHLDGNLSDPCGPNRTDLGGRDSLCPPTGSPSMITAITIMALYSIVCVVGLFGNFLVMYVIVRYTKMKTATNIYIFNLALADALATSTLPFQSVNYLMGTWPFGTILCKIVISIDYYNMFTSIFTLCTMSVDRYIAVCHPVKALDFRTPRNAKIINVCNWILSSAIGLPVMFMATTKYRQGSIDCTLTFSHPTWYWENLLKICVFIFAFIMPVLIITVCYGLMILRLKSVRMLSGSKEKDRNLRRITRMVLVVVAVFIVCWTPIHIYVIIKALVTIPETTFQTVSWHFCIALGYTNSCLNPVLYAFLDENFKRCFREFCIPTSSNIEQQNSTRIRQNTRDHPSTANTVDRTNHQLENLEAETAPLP
Outline: as §1

Human neurokinin (NK1) = molecular target: T8, Human neurokinin (NK1) (Homo sapiens, UniProt P25103); test: Radioligand binding, human neurokinin NK1 membranes, filtration, [125I]-Substance P; details: compound at 10 μM; for A8 radioligand binding inhibition: human neurokinin NK1 membranes
T8 construct: purchased Perkin Elmer Biosignal
T8 sequence (P25103 whole entry): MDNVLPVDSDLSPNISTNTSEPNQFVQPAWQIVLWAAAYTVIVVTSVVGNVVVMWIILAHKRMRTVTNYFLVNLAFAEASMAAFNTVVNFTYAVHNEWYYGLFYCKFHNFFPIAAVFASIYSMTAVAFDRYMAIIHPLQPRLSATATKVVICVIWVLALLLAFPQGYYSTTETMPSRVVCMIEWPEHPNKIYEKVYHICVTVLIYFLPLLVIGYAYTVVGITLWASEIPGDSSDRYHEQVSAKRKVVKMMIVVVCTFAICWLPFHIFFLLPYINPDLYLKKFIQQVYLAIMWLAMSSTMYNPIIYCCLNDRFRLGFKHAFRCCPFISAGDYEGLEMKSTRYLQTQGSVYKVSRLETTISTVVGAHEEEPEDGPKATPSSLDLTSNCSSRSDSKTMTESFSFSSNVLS
Outline: as §2

[2] = molecular target: T9, Human neuropeptide Y (NPY-Y1) (Homo sapiens, UniProt P25929); test: Radioligand binding, human neuropeptide Y NPY-Y1 membranes, FlashPlate, [125I]-PYY; details: compound at 10 μM
T9 construct: purchased Perkin Elmer Biosignal
T9 sequence (P25929 1-384): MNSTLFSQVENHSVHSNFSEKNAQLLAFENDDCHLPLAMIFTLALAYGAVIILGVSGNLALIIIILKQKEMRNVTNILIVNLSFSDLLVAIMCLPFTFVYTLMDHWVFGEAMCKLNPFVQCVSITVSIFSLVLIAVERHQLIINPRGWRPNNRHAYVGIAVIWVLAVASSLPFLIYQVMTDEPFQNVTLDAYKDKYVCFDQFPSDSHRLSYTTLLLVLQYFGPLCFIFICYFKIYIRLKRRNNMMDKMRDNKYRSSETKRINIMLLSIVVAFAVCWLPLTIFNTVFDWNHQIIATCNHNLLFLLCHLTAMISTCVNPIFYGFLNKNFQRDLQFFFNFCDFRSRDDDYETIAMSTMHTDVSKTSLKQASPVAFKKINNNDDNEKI
Outline: as §1

Human opioid (ORL1) = molecular target: T10, Human opioid (ORL1) (Homo sapiens, UniProt P41146); test: Radioligand binding, human opioid ORL1 membranes, FlashPlate, [125I]-Nociceptin; details: compound at 10 μM
T10 construct: purchased Perkin Elmer Biosignal
T10 sequence (P41146 whole entry): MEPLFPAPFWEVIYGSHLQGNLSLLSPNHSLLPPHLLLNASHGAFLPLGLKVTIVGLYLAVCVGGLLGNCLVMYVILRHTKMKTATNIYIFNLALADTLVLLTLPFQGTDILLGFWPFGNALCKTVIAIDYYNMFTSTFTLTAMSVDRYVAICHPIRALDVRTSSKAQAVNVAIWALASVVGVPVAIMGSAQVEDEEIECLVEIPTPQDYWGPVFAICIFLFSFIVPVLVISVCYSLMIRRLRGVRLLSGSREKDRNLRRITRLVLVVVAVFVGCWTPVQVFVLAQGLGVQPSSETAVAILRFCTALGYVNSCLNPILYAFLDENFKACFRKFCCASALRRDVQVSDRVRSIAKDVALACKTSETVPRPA
Outline: as §1

Mouse urotensin (mUR2) = molecular target: T11, Mouse urotensin (mUR2) (Mus musculus, UniProt Q8VIH9); test: Radioligand binding, mouse urotensin mUR2 membranes, FlashPlate, [125I]-Urotensin II; details: compound at 10 μM; for A11 radioligand binding inhibition: mouse urotensin mUR2 membranes
T11 construct: purchased Perkin Elmer Biosignal
T11 sequence (Q8VIH9 1-385): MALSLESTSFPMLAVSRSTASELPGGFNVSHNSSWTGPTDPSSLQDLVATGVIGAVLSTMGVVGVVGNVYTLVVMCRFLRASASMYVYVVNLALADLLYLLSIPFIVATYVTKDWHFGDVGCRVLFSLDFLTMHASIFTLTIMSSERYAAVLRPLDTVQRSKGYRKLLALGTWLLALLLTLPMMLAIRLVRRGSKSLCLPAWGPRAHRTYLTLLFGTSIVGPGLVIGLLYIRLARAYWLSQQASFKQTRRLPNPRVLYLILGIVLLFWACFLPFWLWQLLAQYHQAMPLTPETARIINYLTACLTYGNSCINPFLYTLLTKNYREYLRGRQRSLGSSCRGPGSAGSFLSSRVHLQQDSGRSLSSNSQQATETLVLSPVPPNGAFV
Outline: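 Cloned mouse urotensin (mUR2) receptor membranes from Perkin Elmer Biosignal were immobilized in FlashPlate microplates using a proprietary coating. Each well got 19.5 μl buffer, then 0.5 μl of DMSO, reference ligand, or compound. Adding 5 μl of [125I]-Urotensin II, diluted to 5× final concentration in binding buffer, started binding. Plates were sealed with TopSeal-A and incubated 1 hour at room temperature in the dark. Wells were counted for 30 seconds each on a TopCount after a 60-second delay, and percentage inhibition was calculated.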

T1 sequence (P41143 whole entry): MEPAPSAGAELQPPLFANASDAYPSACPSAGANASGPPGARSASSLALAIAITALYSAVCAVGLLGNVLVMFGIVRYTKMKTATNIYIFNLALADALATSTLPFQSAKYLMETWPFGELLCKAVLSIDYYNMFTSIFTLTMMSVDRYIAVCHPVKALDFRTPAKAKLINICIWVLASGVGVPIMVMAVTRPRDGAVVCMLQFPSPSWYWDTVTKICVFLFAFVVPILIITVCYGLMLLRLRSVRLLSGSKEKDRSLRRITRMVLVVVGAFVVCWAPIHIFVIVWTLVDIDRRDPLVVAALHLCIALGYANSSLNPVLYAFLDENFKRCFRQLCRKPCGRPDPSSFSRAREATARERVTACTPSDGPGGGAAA

Row | SMILES | A1: inhibition of radioligand binding, human δ-opioid (DOP) (Human δ-opioid (DOP); [3H]-Bremazocine) | A4: inhibition of radioligand binding, human melanocortin (MC4) (Human Melanocortin (MC4); [125I]-NDP-αMSH) | A5: inhibition of radioligand binding, human melanocortin (MC5) (Human melanocortin (MC5); [125I]-NDP-αMSH) | A6: inhibition of radioligand binding, human melanin-concentrating hormone (MCH1) [1] | A7: inhibition of radioligand binding, human μ-opioid (MOP) (Human μ-opioid (MOP); [3H]-Naloxone) | A8: inhibition of radioligand binding, human neurokinin (NK1) (Human neurokinin (NK1); [125I]-Substance P) | A9: inhibition of radioligand binding, human neuropeptide Y (NPY-Y1) ([2]; [125I]-PYY) | A10: inhibition of radioligand binding, human opioid (ORL1) (Human opioid (ORL1); [125I]-Nociceptin) | A11: inhibition of radioligand binding, mouse urotensin (mUR2) (Mouse urotensin (mUR2); [125I]-Urotensin II) | A1 radioligand binding inhibition (Human δ-opioid (DOP)) | A2 radioligand binding inhibition (Human κ-Opioid (KOP)) | A3 radioligand binding inhibition (Human Melanocortin (MC3)) | A4 radioligand binding inhibition (Human Melanocortin (MC4)) | A5 radioligand binding inhibition (Human melanocortin (MC5)) | A6 radioligand binding inhibition [1] | A7 radioligand binding inhibition (Human μ-opioid (MOP)) | A8 radioligand binding inhibition (Human neurokinin (NK1)) | A9 radioligand binding inhibition ([2]; human NPY-Y1 membranes) | A10 radioligand binding inhibition (Human opioid (ORL1); human ORL1 membranes) | A11 radioligand binding inhibition (Mouse urotensin (mUR2)) | further results
1 | N=C(N)NCC(=O)NC1C(OCc2ccc(Cl)cc2)OC(COCc2ccc3ccccc3c2)C(O)C1OCc1ccc(Cl)cc1 (single isomer, unassigned) [compound 508] | − (“−” indicates less than 50% inhibition at 10 μM) | + (“+” indicates greater than 50% inhibition at 10 μM) | + (“+” indicates greater than 50% inhibition at 10 μM) | + (“+” indicates greater than 50% inhibition at 10 μM) | − (“−” indicates less than 50% inhibition at 10 μM) | + (“+” indicates greater than 50% inhibition at 10 μM) | − (“−” indicates less than 50% inhibition at 10 μM) | + (“+” indicates greater than 50% inhibition at 10 μM) | − (“−” indicates less than 50% inhibition at 10 μM) |  |  |  |  |  |  |  |  |  |  |  | A2: inhibition of radioligand binding, human κ-opioid (KOP) (Human κ-Opioid (KOP); [3H]-Diprenorphine, 10 µM): + (“+” indicates greater than 50% inhibition at 10 μM); A3: inhibition of radioligand binding, human melanocortin (MC3) (Human Melanocortin (MC3); [125I]-NDP-αMSH, 10 µM): + (“+” indicates greater than 50% inhibition at 10 μM)
2 | N=C(N)NCCC(=O)NC1C(OCc2ccc(-c3ccccc3)cc2)OC(COCc2ccccc2)C(O)C1OCc1ccc(Cl)cc1 (stereo not shown) [compound 409] |  |  |  |  |  |  |  |  |  |  |  |  |  |  |  |  |  |  |  |  | A1: inhibition of radioligand binding (Human δ-opioid (DOP); [3H]-Bremazocine, human DOP membranes): − (“−” indicates less than 50% inhibition at 10 μM); A2: inhibition of radioligand binding (Human κ-Opioid (KOP); [3H]-Diprenorphine, human KOP membranes): − (“−” indicates less than 50% inhibition at 10 μM); A3: inhibition of radioligand binding (Human Melanocortin (MC3); [125I]-NDP-αMSH, human MC3 membranes): + (“+” indicates greater than 50% inhibition at 10 μM); A4: inhibition of radioligand binding (Human Melanocortin (MC4); [125I]-NDP-αMSH, human MC4 membranes): + (“+” indicates greater than 50% inhibition at 10 μM); A5: inhibition of radioligand binding (Human melanocortin (MC5); [125I]-NDP-αMSH, human MC5 membranes): + (“+” indicates greater than 50% inhibition at 10 μM); A6: inhibition of radioligand binding ([1]; [125I]-S36057, human MCH1 membranes): + (“+” indicates greater than 50% inhibition at 10 μM); A7: inhibition of radioligand binding (Human μ-opioid (MOP); [3H]-Naloxone, human MOP membranes): − (“−” indicates less than 50% inhibition at 10 μM); A8: inhibition of radioligand binding (Human neurokinin (NK1); [125I]-Substance P, human NK1 membranes): + (“+” indicates greater than 50% inhibition at 10 μM); A9: inhibition of radioligand binding ([2]; [125I]-PYY, human NPY-Y1 membranes): − (“−” indicates less than 50% inhibition at 10 μM); A10: inhibition of radioligand binding (Human opioid (ORL1); [125I]-Nociceptin, human ORL1 membranes): + (“+” indicates greater than 50% inhibition at 10 μM); A11: inhibition of radioligand binding (Mouse urotensin (mUR2); [125I]-Urotensin II, mouse mUR2 membranes): − (“−” indicates less than 50% inhibition at 10 μM)
3 | CSC1OC(COCc2cccc(N)c2)C(O)C(OCc2ccccc2)C1NC(=O)c1c[nH]c2ccccc12 (stereo not shown) [compound 331] | − (“−” indicates less than 50% inhibition at 10 μM) | − (“−” indicates less than 50% inhibition at 10 μM) | − (“−” indicates less than 50% inhibition at 10 μM) | − (“−” indicates less than 50% inhibition at 10 μM) | − (“−” indicates less than 50% inhibition at 10 μM) | + (“+” indicates greater than 50% inhibition at 10 μM) | − (“−” indicates less than 50% inhibition at 10 μM) | − (“−” indicates less than 50% inhibition at 10 μM) | − (“−” indicates less than 50% inhibition at 10 μM) |  |  |  |  |  |  |  |  |  |  |  | A2: inhibition of radioligand binding, human κ-opioid (KOP) (Human κ-Opioid (KOP); [3H]-Diprenorphine): − (“−” indicates less than 50% inhibition at 10 μM); A3: inhibition of radioligand binding, human melanocortin (MC3) (Human Melanocortin (MC3); [125I]-NDP-αMSH): − (“−” indicates less than 50% inhibition at 10 μM)
4 | CO[C@H]1[C@H](O)[C@@H](COCc2ccc(Cl)cc2)OC(OCc2ccc(-c3ccccc3)cc2)[C@@H]1NC(=O)CCCN (stereo partly shown) [compound 64] |  |  |  |  |  |  |  |  |  | − (“−” indicates less than 50% inhibition at 10 μM) | − (“−” indicates less than 50% inhibition at 10 μM) | + (“+” indicates greater than 50% inhibition at 10 μM) | − (“−” indicates less than 50% inhibition at 10 μM) | + (“+” indicates greater than 50% inhibition at 10 μM) | − (“−” indicates less than 50% inhibition at 10 μM) | − (“−” indicates less than 50% inhibition at 10 μM) | + (“+” indicates greater than 50% inhibition at 10 μM) | − (“−” indicates less than 50% inhibition at 10 μM) | − (“−” indicates less than 50% inhibition at 10 μM) | − (“−” indicates less than 50% inhibition at 10 μM) | 
5 | COC[C@H]1OC(OCc2ccc3ccccc3c2)[C@H](NC(=O)CCNC(=N)N)[C@@H](OCc2ccc3ccccc3c2)[C@@H]1O (stereo partly shown) [compound 18] |  |  |  |  |  |  |  |  |  | − (“−” indicates less than 50% inhibition at 10 μM) | − (“−” indicates less than 50% inhibition at 10 μM) | − (“−” indicates less than 50% inhibition at 10 μM) | − (“−” indicates less than 50% inhibition at 10 μM) | + (“+” indicates greater than 50% inhibition at 10 μM) | + (“+” indicates greater than 50% inhibition at 10 μM) | + (“+” indicates greater than 50% inhibition at 10 μM) | + (“+” indicates greater than 50% inhibition at 10 μM) | − (“−” indicates less than 50% inhibition at 10 μM) | − (“−” indicates less than 50% inhibition at 10 μM) | − (“−” indicates less than 50% inhibition at 10 μM) | 
